Results taken from article PMC6979384, “Characterization of the plant homeodomain (PHD) reader family for their histone tail interactions” (Epigenetics & Chromatin, 2020).

Tests used:
Assay in all cases: Histone peptide microarray
Assay type in all cases: binding, human
Conditions in all cases: histone peptide array, arrays performed twice, n of 4
ING3 = tested on: ING3
Method in brief: (§1)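 Binding of recombinant GST-fused PHD readers (0.5 μM) is detected on an array of 293 histone peptides, modified singly or in combination. An optimized array protocol is followed, and each intensity is the average of quadruplicate measurements with standard deviation.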

TRIM66 (PB) = tested on: TRIM66 (PB)
Method in brief: as §1

ING4 = tested on: ING4
Method in brief: as §1

ING2 = tested on: ING2
Method in brief: as §1

KDM5A (3) = tested on: KDM5A (3)
Method in brief: as §1

PHF13 = tested on: PHF13
Method in brief: as §1

ING1 = tested on: ING1
Method in brief: as §1

DPF2 (PPC2W2) = tested on: DPF2 (PPC2W2)
Method in brief: as §1

KDM5B (1) = tested on: KDM5B (1)
Method in brief: as §1

TAF3 = tested on: TAF3
Method in brief: as §1

SP140L = tested on: SP140L
Method in brief: as §1

MORC3 (CW) = tested on: MORC3 (CW)
Method in brief: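 GST-PHD reader, 0.5 μM, probed on 293-peptide histone array (single/combinatorial PTMs); optimized array protocol; signal = mean ± SD, n = 4.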

RAG2 = tested on: RAG2
Method in brief: as §1

PHF8 = tested on: PHF8
Method in brief: as §1

CHD4 (PPCC) = tested on: CHD4 (PPCC)
Method in brief: as §1

MLL5 = tested on: MLL5
Method in brief: as §1

KDM7A = tested on: KDM7A
Method in brief: as §1

PHRF1 (RP) = tested on: PHRF1 (RP)
Method in brief: as §1

ING5 = tested on: ING5
Method in brief: as §1

BPTF (PB) = tested on: BPTF (PB)
Method in brief: as §1

AIRE (PP) = tested on: AIRE (PP)
Method in brief: as §1

DIDO1 = tested on: DIDO1
Method in brief: as §1

CHD5 (PCC) = tested on: CHD5 (PCC)
Method in brief: as §1

BAZ2B = tested on: BAZ2B
Method in brief: as §1

KDM5B (3) = tested on: KDM5B (3)
Method in brief: as §1

PHF2 = tested on: PHF2
Method in brief: as §1

CHD5 (PPCC) = tested on: CHD5 (PPCC)
Method in brief: as §1

KDM5A (1) = tested on: KDM5A (1)
Method in brief: as §1

PHF21A = tested on: PHF21A
Method in brief: as §1

KDM4C (TTP) = tested on: KDM4C (TTP)
Method in brief: as §1

PHF23 = tested on: PHF23
Method in brief: as §1

[1] = GST-tagged reader, PB = PHD + Bromodomain
[2] = GST-tagged reader, PPCC = Dual PHD + Dual Chromodomain

H4K5K8but (1-23): H4 1-23
Array Heatmap signal, ING3 (ING3; GST-tagged reader): 0.4809
Array Heatmap signal, TRIM66 (PB) (TRIM66 (PB); [1]): 0.5587
Array Heatmap signal, ING4 (ING4; GST-tagged reader): 0.4968
Array Heatmap signal, ING2 (ING2; GST-tagged reader): 0.5955
Array Heatmap signal, KDM5A (3) (KDM5A (3); GST-tagged reader): 0.457
Array Heatmap signal, PHF13 (PHF13; GST-tagged reader): 0.6376
Array Heatmap signal, ING1 (ING1; GST-tagged reader): 0.5231
Array Heatmap signal, DPF2 (PPC2W2) (DPF2 (PPC2W2); GST-tagged reader, PPC2W2 = Dual PHD + C2W2-type Zn-finger): 0.658
Array Heatmap signal, KDM5B (1) (KDM5B (1); GST-tagged reader): 0.7062
Array Heatmap signal, TAF3 (TAF3; GST-tagged reader): 0.2895
Array Heatmap signal, SP140L (SP140L; GST-tagged reader): 0.399
Array Heatmap signal, MORC3 (CW) (MORC3 (CW); GST-tagged reader, CW = CW-type Zn-finger): 0.3933
Array Heatmap signal, RAG2 (RAG2; GST-tagged reader): 0.2516
Array Heatmap signal, PHF8 (PHF8; GST-tagged reader): 0.4044
Array Heatmap signal, CHD4 (PPCC) (CHD4 (PPCC); [2]): 0.6049
Array Heatmap signal, MLL5 (MLL5; GST-tagged reader): 0.5399
Array Heatmap signal, KDM7A (KDM7A; GST-tagged reader): 0.4497
Array Heatmap signal, PHRF1 (RP) (PHRF1 (RP); GST-tagged reader): 0.4216
Array Heatmap signal, ING5 (ING5; GST-tagged reader): 0.3968
Array Heatmap signal, BPTF (PB) (BPTF (PB); [1]): 0.3688
Array Heatmap signal, AIRE (PP) (AIRE (PP); GST-tagged reader): 0.5575
Array Heatmap signal, DIDO1 (DIDO1; GST-tagged reader): 0.6112
Array Heatmap signal, CHD5 (PCC) (CHD5 (PCC); GST-tagged reader, PCC = PHD + Dual Chromodomain): 0.8285
Array Heatmap signal, BAZ2B (BAZ2B; GST-tagged reader): 0.52
Array Heatmap signal, KDM5B (3) (KDM5B (3); GST-tagged reader): 0.5218
Array Heatmap signal, PHF2 (PHF2; GST-tagged reader): 0.4396
Array Heatmap signal, CHD5 (PPCC) (CHD5 (PPCC); [2]): 0.592
Array Heatmap signal, KDM5A (1) (KDM5A (1); GST-tagged reader): 0.515
Array Heatmap signal, PHF21A (PHF21A; GST-tagged reader): 0.5071
Array Heatmap signal, KDM4C (TTP) (KDM4C (TTP); GST-tagged reader, TTP = Tandem Tudor domain + PHD): 0.558
Array Heatmap signal, PHF23 (PHF23; GST-tagged reader): 0.5226

H4K5ac + K8ac + K12ac + K16ac: H4 1-23
Array Heatmap signal, ING3 (ING3; GST-tagged ING3): 0.4391
Array Heatmap signal, TRIM66 (PB) (TRIM66 (PB); GST-tagged TRIM66 (PB = PHD + Bromodomain)): 0.6818
Array Heatmap signal, ING4 (ING4; GST-tagged ING4): 0.4555
Array Heatmap signal, ING2 (ING2; GST-tagged ING2): 0.572
Array Heatmap signal, KDM5A (3) (KDM5A (3); GST-tagged KDM5A (3)): 0.4106
Array Heatmap signal, PHF13 (PHF13; GST-tagged PHF13): 0.598
Array Heatmap signal, ING1 (ING1; GST-tagged ING1): 0.4878
Array Heatmap signal, DPF2 (PPC2W2) (DPF2 (PPC2W2); GST-tagged DPF2 (PPC2W2 = Dual PHD + C2W2-type Zn-finger)): 0.6508
Array Heatmap signal, KDM5B (1) (KDM5B (1); GST-tagged KDM5B (1)): 0.7197
Array Heatmap signal, TAF3 (TAF3; GST-tagged TAF3): 0.2729
Array Heatmap signal, SP140L (SP140L; GST-tagged SP140L): 0.3494
Array Heatmap signal, MORC3 (CW) (MORC3 (CW); GST-tagged MORC3 (CW = CW-type Zn-finger)): 0.3746
Array Heatmap signal, RAG2 (RAG2; GST-tagged RAG2): 0.2398
Array Heatmap signal, PHF8 (PHF8; GST-tagged PHF8): 0.3604
Array Heatmap signal, CHD4 (PPCC) (CHD4 (PPCC); GST-tagged CHD4 (PPCC = Dual PHD + Dual Chromodomain)): 0.5585
Array Heatmap signal, MLL5 (MLL5; GST-tagged MLL5): 0.5322
Array Heatmap signal, KDM7A (KDM7A; GST-tagged KDM7A): 0.4726
Array Heatmap signal, PHRF1 (RP) (PHRF1 (RP); GST-tagged PHRF1 (RP)): 0.436
Array Heatmap signal, ING5 (ING5; GST-tagged ING5): 0.371
Array Heatmap signal, BPTF (PB) (BPTF (PB); GST-tagged BPTF (PB = PHD + Bromodomain)): 0.4178
Array Heatmap signal, AIRE (PP) (AIRE (PP); GST-tagged AIRE (PP)): 0.5646
Array Heatmap signal, DIDO1 (DIDO1; GST-tagged DIDO1): 0.6106
Array Heatmap signal, CHD5 (PCC) (CHD5 (PCC); GST-tagged CHD5 (PCC = PHD + Dual Chromodomain)): 0.8346
Array Heatmap signal, BAZ2B (BAZ2B; GST-tagged BAZ2B): 0.5369
Array Heatmap signal, KDM5B (3) (KDM5B (3); GST-tagged KDM5B (3)): 0.5025
Array Heatmap signal, PHF2 (PHF2; GST-tagged PHF2): 0.443
Array Heatmap signal, CHD5 (PPCC) (CHD5 (PPCC); GST-tagged CHD5 (PPCC = Dual PHD + Dual Chromodomain)): 0.5534
Array Heatmap signal, KDM5A (1) (KDM5A (1); GST-tagged KDM5A (1)): 0.4894
Array Heatmap signal, PHF21A (PHF21A; GST-tagged PHF21A): 0.4657
Array Heatmap signal, KDM4C (TTP) (KDM4C (TTP); GST-tagged KDM4C (TTP = Tandem Tudor domain + PHD)): 0.5368
Array Heatmap signal, PHF23 (PHF23; GST-tagged PHF23): 0.4802
